# Experiments:
# [1] = tested on: guinea pig eosinophiles; assay: Release of prostaglandin D2 and thromboxane B2 from PAF-induced guinea pig eosinophiles; type: cell-based; settings: PAF C-16 10^-7M, 10 minutes
# Method: In accordance with almost the same as the method of Sugasawa et al. (Agents and Actions 37, 233-237 (1992)), eosinophiles were separated and purified from abdominal of a male Hartley guinea pig (from SLC) and the cell concentration was adjusted to 1.25×10^7 cell/ml with modified hanks solution. The cell suspension (80 μl) were added to a 96-well culture plate (by Asahi-techno-glass Co. Ltd.), and then a test sample in DMSO solution or 2.5% DMSO solution only (10 μl) was added. After the plate was preincubated in a CO2 gas incubator for 10 minutes (5% CO2, at 37° C.), thereto was added Platelet Activating Factor (PAF C-16, by Cayman Chemical) 10 μl (final concentration of PAF C-16: 10−7M), and the mixture was further incubated in a CO2 gas incubator for 10 minutes. The concentrations of thromboxane B2 and prostaglandin in the supernatant were measured by using immunoassay kit (Thromboxane B2 EIA kit, Prostaglandin D2-MOX EIA kit, by Cayman Chemical).
# [2] = tested on: guinea pig rhinitis model; assay: Inflammatory mediators (TNF, LTE4) in nasal cavity lavage fluid of guinea pig rhinitis model; type: in vivo; settings: 8 hours after antigen nasal challenge
# Method: Eight hours after antigen nasal challenge, by intraperitoneally administering pentobarbital sodium (Nembutal (reg. trade name), by Dainippon Sumitomo Pharma) 30 mg/body weight (kg) to anesthetize, the animal was fixed at the back. Opening bronchial, a cannula was inserted into a lung site to continue breath, and fixed by knotting. After stopping the channel of oral cavity and nasal cavity, from a part of opened bronchia to a side of nasal cavity a cannula was inserted, and knotted, and to the cannula was connected syringe pump. A saline solution was refluxed in the nasal cavity at flow speed (1 ml/minute) for 10 minutes, and the refluxed solution was recovered to get nasal cavity lavage fluid, NCLF). NCLF was centrifuged (1710.5×g (3000 rpm), 4° C., 10 minutes), and the supernatant was freezed at −80° C., and subjected to experiment of Example 5.
# The supernatant of NCLF obtained in Example 4 was freezed at −80° C. and preserved. After thawing the sample, the concentration of LTE4 was measured by immuno assay kit (Leukotriene E4 EIA kit, by Cayman Chemical). The concentration of TNF was measured by bioassay method using L929 cells (from Dainippon Sumitomo Pharma) (David H., et al., J. Allergy Clin. Immunol. 89, 958-967 (1992)). Using recombinant human TNF-α (by PeproTech) as a standard, the result was shown by potency of human TNF-α cytotoxicity.
# [3] = tested on: guinea pig delayed asthma model; assay: Guinea pig delayed asthma model; type: in vivo; settings: Cavia porcellus, oral, 1 hour before OVA inhalation, read-out: ED50 (inhibition of delayed asthma reaction, AUC4-8hr of % sRaw/TV)
# Method: Hartley male guinea pigs were purchased from SLC, and after quarantining them for 1 week, at the week when the qualantine was finished the first sensitization was carried out by antigen exposure. By using ultrasonic nebulizer (OMRON NE-U12, condition: Vapor amount: maximum, Air: small) 2% (w/v) ovalbumin (OVA, by Sigma-Aldrich) in saline solution was vaporized, and by disposing for 10 minutes, they were first sensitized. At sensitizing, the guinea pigs were fixed on a body holder cartridge for them (by M.I.P.S.), and they were set on disposal chamber holder for 8 guinea pigs (by M.I.P.S.). Additional sensitization was carried out 7 days after the first sensitization as well. […] Breath function was measured by a general breath function measurement system (by M.I.P.S.) using Double flow plestymograph method (Penny A. Hutson et al. Am Rev Respir Dis 1988 137, 548-557). The breath function was measured before reaction induction (pre-value), 5 minutes, 1, 2, 3, 4, 5, 6, 7, and 8 hours after completion of reaction induction. By using one of parameters, sRaw/TV (specific airway resistance/once breath) as an index of improvement of respiratory function, variation rate per individual of sRaw/TV (% sRaw/TV) against pre-value between each measured times was calculated. Plotting % sRaw/TV with time, Area Under the Curve (AUC4-8hr) from 4 hours to 8 hours after reaction induction was calculated. […]
# [4] = tested on: mast cells derived from murine bone marrow; assay: Cys-LT release from antigen-stimulated murine bone marrow-derived mast cells; type: cell-based, mouse; settings: DNP-HSA 10 ng/ml; IgE-sensitized mast cells
# Excerpt: (§1) According to almost the same method as the method by Razin et al. (J. Immunol. 132, 1479-1486 (1984)), murine bone marrow cells were differentiated into mast cells. Namely, bone marrow cells from femur of a female BALB/c mouse (purchased from Charles River Japan) were collected, and cultured in RPMI 1640 culture medium, containing 10% […] FBS prepared by Invitrogen, and 50% WEHI-3 cell culture supernatant. After culture for more than three weeks and confirming differentiation into mast cells under microscope, the cells were subjected to the following experiments.
# (§2) Mast cells were suspended in the concentration of 2×10^6 cell/ml, and thereto was added 0.1 μg/ml anti-mouse DNP-Age antibody (SPE7, by Sigma-Aldrich). The cell suspension was incubated overnight in a CO2 incubator (5% CO2, 37° C.), and passively sensitized. […] After terminating the reaction by putting the plate on ice, histamine concentration of the supernatant was measured. […]
# This experiment was conducted in the almost same method as the experiment of histamine release except that the final concentration of antigen (DNP-HSA) was 10 ng/ml. The concentration of […] in supernatant was measured by using Cysteinyl-Leukotriene EIA Kit (by Cayman Chemical).
# [5] = tested on: guinea pig rhinitis model; assay: Nasal cavity resistance change (sRaw) in guinea pig rhinitis model; type: in vivo; settings: oral
# Method: Referring to the report (74th Japanese Pharmacological Society (2001), Abstract number P-258, Establishment delayed rhinitis model by a guinea pig and effect of polysulfonic acidified hyaluronic acid, Masaki Matsudo, Junichi Fuchigami et al.), the following evaluation was conducted.
# A saline solution (1 ml) containing OVA (50 mg) and aluminum hydroxide gel (1 mg) (by PIERCE) was percuteneously administered to a male Hartley guinea pig (from Kyudo Co. Ltd.) on back collum to make active sensitization.
# SMP-028 was orally administered for 15 days starting from sensitization once a day (5 ml/body weight (kg)). The drug was orally administered before 1 hour on the sensitized day or on the antibody-challenged day. To saline solution challenged group (saline group) and control group was orally administered 0.5% MC as well. To dexamethasone group (dex. group) was orally administered the drug before 16 hours and 2 hours of antibody challenge. […]
# By using a general respiratory function analysis system (PULMOS-I, by M.I.P.S), nasal cavity resistance of guinea big under palinesthesia was measured in accordance with the method of Double flow plestymograph. Because antibody challenge region was restricted to nose part, sRaw which was analyzed by computer and outputted (specific airway resistance) was served as an index of nasal cavity resistance. Before antibody nasal challenge, 10 minutes, 2, 3, 4, 5, 6 and 7 hours after the challenge, each sRaw per animal was once measured, and average of 100 breathes was made sRaw at each measured time. From the sRaw value by using analysis soft on a general respiratory function analysis system (WinPUL13 ver. 1.21) and using the calculation formula (sRaw increased rate (%) during each measuring times=100×(sRaw−sRaw before challenge during each measuring times)/sRaw before challenge), sRaw change rate was calculated. […] AUC3-7hr was calculated by trapezoid (echelon) method. Furthermore, from IAR and LAR in medium control group and each test group, inhibiting rate (%) on each test group against medium control group was calculated.
# [6] = tested on: mast cells derived from murine bone marrow; assay: Cytokine (TNF-α, IL-13) release from antigen-stimulated murine bone marrow-derived mast cells; type: cell-based, mouse; settings: DNP-HSA 3 ng/ml, 4 hours
# Excerpt: as §1, §2
# This experiment was conducted in almost the same method as the experiment on histamine release except that the final concentration of antigen (DNP-HSA) was 3 ng/ml, and reaction hours after addition of the antigen were 4 hours. The concentrations of TNF-α, and IL-13 in the supernatant were measured by using Enzyme-linked immunoassay kit (Quantikine (reg. trademark) Mouse TNF-α/TNFSF1A and IL-13 Immunoassay, by R&D systems).
# [7] = tested on: mast cells derived from murine bone marrow; assay: Histamine release from antigen-stimulated murine bone marrow-derived mast cells; type: cell-based, mouse; settings: DNP-HSA 100 ng/ml, 20 minutes; IgE-sensitized mast cells
# Excerpt: as §1
# Mast cells were suspended in the concentration of 2×10^6 cell/ml, and thereto was added 0.1 μg/ml anti-mouse DNP-Age antibody (SPE7, by Sigma-Aldrich). The cell suspension was incubated overnight in a CO2 incubator (5% CO2, 37° C.), and passively sensitized. […] The cell suspension (80 μl) were added to a 96-well culture plate (by Asahi-techno-glass Co. Ltd.), and then a test sample in DMSO solution or 2.5% DMSO solution only (10 μl) was added. After the plate was reinsulated in a CO2 incubator for 10 minutes, to stimulate, 10 μl of 1 μg/ml of antibody (DNP-HSA, by Sigma-Aldrich, final concentration of antigen 100 ng/ml) was added to each well. […] After terminating the reaction by putting the plate on ice, histamine concentration of the supernatant was measured. […]
# [8] = once a day for 15 days, OVA nasal challenge
smiles,measurement,setting,value
"CNC(=O)NCCn1c(-c2ccc(N3CCOCC3)cc2)csc1=Nc1cccc(F)c1 [SMP-028, N-{2-[2-[(3-Fluorophenyl)imino]-4-(4-morpholin-4-ylphenyl)-1,3-thiazol-3(2H)-yl]ethyl}-N′-methylurea]",release of prostaglandin D2 from eosinophiles,[1],concentration-dependently inhibited
same,release of thromboxane B2 from eosinophiles,[1],concentration-dependently inhibited
same,production of LTE4 in nasal cavity (NCLF),[2]; EIA,showed a tendency and activity of inhibition
same,production of TNF in nasal cavity (NCLF),[2]; L929 bioassay,showed a tendency and activity of inhibition
same,ED50,[3],0.44 mg/kg
same,release of Cys-LT from mast cells,[4],inhibited
same,efficacy on immediate and delayed nasal congestion reaction compared with dexamethasone,[5]; 30 mg/kg,efficacy comparative to dexamethasone
same,"delayed nasal congestion reaction (LAR, AUC3-7hr of sRaw increased rate)",[5]; [8],dose-dependently inhibited
same,"immediate nasal congestion reaction (IAR, sRaw increased rate 10 minutes after challenge)",[5]; [8],dose-dependently inhibited
same,release of IL-13 from mast cells,[6],inhibited
same,release of TNF-α from mast cells,[6],inhibited
same,release of histamine from mast cells,[7],inhibited
"CNC(=O)NCCn1c(-c2ccc(N3CCOCC3)cc2)csc1=Nc1ccc(F)cc1 [Compound 2, reference compound]",ED50,[3],0.69 mg/kg

# Reference: patent US20090124622A1, “Medicament Containing a Thiazole Derivative as an Active Ingredient” (priority 2006, published 2009)
